The text below walks through data of publication PMC10769324 (bioRxiv, 2024).

For test [1], the target named is T1, 5-HT2A (Homo sapiens, UniProt P28223). The class given is binding. The settings on record: [3H]-LSD 0.5 nM, HEK293 membranes; for log(Ki): printed as log(Ki) with negative sign.
Test [2] concerns the target T1, 5-HT2A. The settings on record: Gαq dissociation vs β-arrestin2 recruitment, versus 5-HT.

T1 sequence (P28223 whole entry): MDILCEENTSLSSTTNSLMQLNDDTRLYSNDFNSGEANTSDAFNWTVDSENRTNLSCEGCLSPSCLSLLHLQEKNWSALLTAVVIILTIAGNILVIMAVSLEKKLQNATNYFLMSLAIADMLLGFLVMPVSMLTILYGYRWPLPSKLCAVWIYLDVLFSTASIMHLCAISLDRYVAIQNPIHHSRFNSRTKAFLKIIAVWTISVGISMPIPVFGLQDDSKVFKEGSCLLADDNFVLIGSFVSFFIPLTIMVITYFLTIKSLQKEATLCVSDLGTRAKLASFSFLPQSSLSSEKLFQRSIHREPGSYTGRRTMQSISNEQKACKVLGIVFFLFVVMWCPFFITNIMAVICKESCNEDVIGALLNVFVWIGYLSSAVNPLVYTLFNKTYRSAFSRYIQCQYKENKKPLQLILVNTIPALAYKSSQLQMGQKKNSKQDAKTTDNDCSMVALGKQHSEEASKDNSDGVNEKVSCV

Consider `Clc1ccc(C#CCN2CCCC(c3ccn[nH]3)C2)cc1` (stereo not shown) [Compound Z1348472291], for which, at 5-HT2A [1], the “log(Ki)” value is given as −6.65 ± 0.083.
Still for that read-out and setting: next, `COc1ccc(COCCN(C)C(C)Cc2ccc(O)cc2)cc1` (stereo not shown) [Compound Z1441676226]: −6.77 ± 0.087; `Cc1cccc(OCCCC(=O)N2CCNCc3ccccc32)c1` [Compound Z2393190959]: −6.51 ± 0.085.
The term Ki denotes the dissociation constant of the complex between target and ligand, obtained from inhibition or displacement. A lower Ki goes with higher affinity. In the case of `c1ccc(O[C@H]2CCN(Cc3ccc(-c4ccn[nH]4)o3)C2)cc1` [Compound Z2449215308], on 5-HT2A [1], affinity was put at a Ki of 162 nM and the “log(Ki)” value is −6.79 ± 0.100.
For `Oc1ccc(C2=CCN(CC3CC34CC4)CC2)cc1` (stereo not shown) [Compound Z2945615615] the same measures were 24 nM and −7.62 ± 0.104.
For `C=CCNC(=O)C(C)N1CCCC(c2ccc(O)cc2)C1` (stereo not shown) [Compound Z3517963976] the same measures were 113 nM and −6.95 ± 0.085.
For the compound `O=C(c1cc(C2CCNC2)[nH]n1)N1CCC(c2cccc(Cl)c2)C1` (stereo not shown) [Compound Z3808146201], the “log(Ki)” value at 5-HT2A [1] is −6.51 ± 0.096.
`CCN(Cc1cc(Br)ccc1O)C(=O)C(N)Cc1ccco1` (stereo not shown) [Compound Z3865153101]: on 5-HT2A [1], the inhibition constant Ki came to 114 nM and the “log(Ki)” value is given as −6.94 ± 0.099.
As to `C=C/C=C/CCN1CCC(O)(c2cccc(Br)c2)C1` (stereo not shown) [Compound Z5247693129], on 5-HT2A [1], the “log(Ki)” value was −6.49 ± 0.094.
As for `CC(C)C(N)CCN(C)C(=O)C(=O)Nc1cc2ccccc2cc1Cl` (stereo not shown) [Compound Z5247694451], at 5-HT2A [1], the “log(Ki)” value is recorded as −7.15 ± 0.073.
For `CN(C(=O)c1cn[nH]n1)C1CCN(CCc2cccc(Cl)c2Cl)C1` (stereo not shown) [Compound Z7619689892], on 5-HT2A [1], the Ki is 17 nM and the “log(Ki)” value is −7.78 ± 0.077.
With `COc1ccccc1CC1CCN(CC(=O)c2cc(C)[nH]c2C)C1` (stereo not shown) [Compound Z7619689903], on 5-HT2A [1], the affinity corresponds to a Ki of 344 nM and the “log(Ki)” value is listed as −6.46 ± 0.086.
`NC1Cc2ccccc2N(Cc2cc(O)cc(Br)c2)C1` (stereo not shown) [Compound Z7619689909]: on 5-HT2A [1], the affinity corresponds to a Ki of 72 nM and the “log(Ki)” value is given as −7.14 ± 0.078.
In the case of `NCC1Cc2cc(F)ccc2N(C(=O)Cc2cc(F)ccc2Br)C1` (stereo not shown) [Compound Z7704262288], affinity at 5-HT2A [1] was put at a Ki of 15 nM.
For `NCCc1c[nH]c2ccc(O)cc12` [serotonin], the “Apparent Bias Factor” value at 5-HT2A [2] turned out to be 1.0.
